US11161824B2, “Heterocyclic lipoxin analogs and uses thereof” (University College Dublin, National University of Ireland, …, priority 2016, dated 2021)
Read-outs that look alike come from different tables or passages of the source. Values belong to the compound of their own block, whether it stands above or below them.

What was measured:
NFkB [1] = assay: NFkB-driven luciferase activity in resting conditions (absence of LPS) in THP-1 LUCIA monocytes; type: cell-based; conditions: 10^-12 M to 10^-6 M, 24 h
Description: 1×10^5 THP-1 LUCIA monocytes were treated for 30 min with native (a) LXA4 1, its stable imidazole-lipoxin analogues (1R)-9 and (1S)-9, vehicle or appropriate controls, at increasing doses ranging from 10^−12 M up to 10^−6 M. After 24 h, supernatants were collected and NFkB-driven luciferase was measured. Data are expressed as % Relative Luminescence Unit relative to LPS alone ±SEM (n=3).
(§1) The experiments were based around a model which utilised 1×10^5/ml THP-1 monocytes stably expressing NFkB luciferase reporter gene (LUCIA).
(§2) Anti-inflammatory activity was assessed by testing 10 analogues (6 quinoxalines & 4 isoquinolines) in presence & absence of lipopolysaccharide (LPS). For each analogue, a dose-response from 10^−12 M up to 10^−6 M was performed. The vehicle control corresponded to 0.1% Ethanol. NFkB activator, Heat-Killed Listeria Monocytogenes (HKLM) (10^7 cells/ml), were used as positive control for luciferase induction. 10^−6 M Dexamethasone (Dex) was used as positive control for luciferase inhibition. […] Benzo-lipoxin A4 (BLX) was used as positive control for LXA4 analogues.

Th1 cytokine release = assay: LPS-induced Th1 cytokine release from THP-1 LUCIA monocytes; type: cell-based; conditions: 10^-11, 10^-9 or 10^-7 M; 50 ng/ml LPS 24 h; IL1β, IL6, IL12p70, IFNγ, TNF-α as per figure
Description: FIG. 2A-2E are graphs showing imidazole-lipoxin analogues (1R)-9 and (1S)-9 reduce LPS-induced Th1 cytokine release. 1×10^5 THP-1 LUCIA monocytes were pre-treated for 30 min with […], 10^−9 M or 10^−7 M of LXA4 1 and imidazole-lipoxin analogues (1R)-9 and (1S)-9, vehicle or appropriate controls. After 24 h from stimulation with 50 ng/ml of LPS, supernatants were collected and […] (FIG. 2A), IL6 (FIG. 2B), IL12p70 (FIG. 2C), IFNγ (FIG. 2D), and TNF-α (FIG. 2E) levels were measured. Data are expressed as % cytokine secretion relative to LPS alone ±SEM (n=3), *=p<0.05, **=p<0.01, ***=p<0.001.
FIG. 6A-6C are graphs showing that quinoxaline-lipoxin analogue (1R)-CT-4-43 inhibits LPS-induced Th1 cytokine release. 1×10^5 THP-1 LUCIA monocytes were pre-treated for 30 min with […], 10^−9 M or 10^−7 M of LXA4 and quinoxaline-lipoxin analogue (1R)-CT-4-43, vehicle or appropriate controls. After 24 h from stimulation with 50 ng/ml of LPS, supernatants were collected and IL13 (FIG. 6A), IL6 (FIG. 6B), and IFNγ (FIG. 6C) levels were measured. Data are expressed as % cytokine secretion relative to LPS alone ±SEM (n=3), *=p<0.05, **=p<0.01, ***=p<0.001.
FIG. 9A-9C are graphs showing that the isoquinoline-lipoxin analogue RB3 inhibit LPS-induced Th1 cytokine release. 1×10^5 THP-1 LUCIA monocytes were pre-treated for 30 min with 10^−11 M, 10^−9 M or 10^−7 M of LXA4 and isoquinoline-lipoxin analogue (1R)-RB3, vehicle or appropriate controls. After 24 h from stimulation with 50 ng/ml of LPS, supernatants were collected and IL1β(FIG. 9A), IL6 (FIG. 9B), and IL12p70 (FIG. 9C) levels were measured. Data are expressed as % cytokine secretion relative to LPS alone ±SEM (n=3), *=p<0.05, **=p<0.01, ***=p<0.001.

NFkB [2] = assay: LPS-induced NFkB-driven luciferase activity in THP-1 LUCIA monocytes; type: cell-based; conditions: for effect on LPS-induced NFkB-driven luciferase activity (in words): doses 10^-12 M to 10^-6 M, 50 ng/ml LPS, 24 h; for reduction of LPS-induced NFkB luciferase activity: 30 min pre-treatment, then 24 h with 50 ng/ml LPS, relative to LPS; for concentration at which maximal inhibition of LPS-induced NFkB activity is reached: dose-response 10^-12 M to 10^-6 M; for potency in reducing LPS-induced NFkB activity, comparison in words: versus LXA4 or other analogues
Description: 1×10^5 THP-1 LUCIA monocytes were pre-treated for 30 min with native LXA4 1 (FIG. 1A), imidazole analogues 9 [(1R)-epimer (FIG. 1B) and (1S)-epimer (FIG. 1C)], vehicle or appropriate controls, at increasing doses ranging from 10^−12 M up to 10^−6 M. 10^8 HKLM was used as positive control for NFkB activation. After 24 h from stimulation with 50 ng/ml of LPS, supernatants were collected and NFkB-driven luciferase was measured. (d) Data are expressed as % Relative Luminescence Unit relative to LPS alone ±SEM (n=3), *=p<0.05, **=p<0.01, ***=p<0.001. Graphs display the statistical analysis of the tested compound vs LPS.
as §1, §2
A 2-tailed, assuming unequal variance T-test analysis was performed on three independent experiments for each assay. P-values were considered significant when p<0.05. If p<0.05, then * or $; if p<0.01, then ** or $$ or ##; if p<0.001, then *** or $$$ or ###.
Cells were seeded in 96-well plates and pre-treated with increasing doses of LXA4, analogues or controls for 30 min, followed by 24 h of co-incubation with 50 ng/ml LPS. […] (*=statistical analysis vs LPS; $=statistical analysis vs LXA4)

[3] = tested on: zymosan-induced peritonitis; assay: Murine zymosan-induced peritonitis; type: in vivo, C57BL6/J mice; conditions: lavage 24 h
Description: As shown in FIG. 17 zymosan [1 mg per mouse in 200 μl H2O] induced a massive influx of leukocytes detected in lavage 24 h post-zymosan. […] Mean of total cell numbers=4.27×10^6/ml [basal]; 5.9×107 [vehicle pretreatment and zymosan]; 2.18×107 [LXA4 pretreatment and zymosan]. Pretreament with (R) and (S) epimers of 9 also attenuated cell influx: 2.5×10^7/ml [pretreatment with (1R)-9 and zymosan; p=0.0368, relative to zymosan alone]; 1.16×107 (1S)-9 [p=0.0048 relative to zymosan alone]. Importantly, (1R)-9 and (1S)-9 were administered at doses of 1.7 ng/g using the same regimen as LXA4. As anticipated the leukocyte influx was predominantly neutrophil [PMN]. PMN numbers were reduced to 35, 44 and 20% maximum response by LXA4, (1R)-9 and (1S)-9 epimers respectively.
Effect of LXA4 1 and imidazole-lipoxin analogues (1R)-9 and (1S)-9 on murine zymosan-induced peritonitis. Peritonitis was induced in groups of 5 male C57BL6/J mice by injection of zymosan (Sigma) i.p. (1 mg per mouse in 200 μl H2O). Mice were treated with LXA4 1; (5 ng/g); (1R)-9 (1.7 ng/g) or (1S)-9 (1.7 ng/g) (200 μl i.p.) 30 minutes prior to zymosan injection and again, 1 hour after zymosan injection. Treatments with LXA4 1, (1R)-9 and (1S)-9 are designated A, B and C respectively. Peritoneal cells were collected by lavage 24 hours after injection of zymosan. Cells were incubated with LIVE/DEAD Fixable Aqua stain (Molecular probes, Invitrogen) to isolate dead cells. Data shown are total cell counts/ml. Surface marker expression on peritoneal cells was assessed by flow cytometry with data collection on a CyAn (Beckman Coulter). Data were analyzed using FlowJo software (Tree Star). Cells were stained with BD Biosciences mAbs; Siglec-F-PE (E50-2440), F4/80-FITC (BM8), eBiosciences mAb; CD11b-PerCP (M1/70) and BioLegend mAbs; CD206-PECy7 (C068C2) and Ly6G-APCCy7 (1A8). Using appropriate isotype-controls, quadrants were drawn and data plotted on logarithmic scale density- or dot-plots to investigate the relative % of PMN, eoisiophils, M1 and M2 macrophgaes. […]

THP-1 monocytes = tested on: THP-1 monocytes
Description: Cytotoxicity Prior to functional assay testing, all compounds were screened for any cytotoxic effect, in the presence & absence of LPS, measuring the level of lactate dehydrogenase (LDH) released at A490nm.
The cells were treated as described above and, after 24 h, supernatant was collected and LDH activity assayed.

[4] = 1.7 ng/g i.p. 30 min before and 1 h after zymosan

effect on LPS-induced NFkB-driven luciferase activity (in words) (NFkB [2]): attenuates
potency in reducing LPS-induced NFkB activity, comparison in words (NFkB [2]): not significantly different from LXA4
SMILES: CCCCCCC[C@@H](O)c1nc2ccccc2nc1/C=C/[C@@H](O)[C@@H](O)CCCC(=O)OC [(1R)-CT4-63, Methyl (5S,6R,E)-5,6-dihydroxy-8-(3-((R)-1-hydroxyoctyl)quinoxalin-2-yl)oct-7-enoate]
reduction of LPS-induced NFkB luciferase activity (NFkB [2]; 1 nM): 22.8±7.4%
concentration at which maximal inhibition of LPS-induced NFkB activity is reached (NFkB [2]): 1 nM

NFkB-driven luciferase activity in resting conditions (in words) (NFkB [1]): did not elicit
effect on LPS-induced NFkB-driven luciferase activity (in words) (NFkB [2]): attenuates
potency in reducing LPS-induced NFkB activity, comparison in words (NFkB [2]): most potent
SMILES: CCCCC[C@@H](O)c1nc(/C=C/[C@@H](O)[C@@H](O)CCCC(=O)OC)cc2ccccc12 [(1R)-DM-163-RB3]
effect on LPS-induced Th1 cytokine release (in words) (Th1 cytokine release): inhibit
reduction of LPS-induced NFkB luciferase activity (NFkB [2]; 10 nM): 35.4±6.1%
reduction of LPS-induced NFkB luciferase activity (NFkB [2]; 100 nM): 37.9±9.7%

effect on LPS-induced NFkB-driven luciferase activity (in words) (NFkB [2]): attenuates
SMILES: CCCCC[C@@H](O)c1ncc(/C=C/[C@@H](O)[C@@H]2CCCC(=O)O2)c2ccccc12 [(1S)-DM-178-SB4, (S)-6-((R,E)-1-Hydroxy-3-(1-((R)-1-hydroxyhexyl)isoquinolin-4-yl)allyl)tetrahydro-2H-pyran-2-one]
reduction of LPS-induced NFkB luciferase activity (NFkB [2]; 1 uM): 26.8±8.7%

The remaining lines, values behind:

SMILES: CCCCC[C@@H](O)c1nc(-c2ccccc2)n(-c2ccccc2)c1/C=C/[C@@H](O)[C@@H](O)CCCC(=O)OC [(1R)-9, Methyl (5S,6R,E)-5,6-dihydroxy-8-(4-((R)-1-hydroxyhexyl)-1,2-diphenyl-1H-imidazol-5-yl)oct-7-enoate]
NFkB-driven luciferase activity in resting conditions (in words) (NFkB [1]): do not elicit
effect on LPS-induced Th1 cytokine release (in words) (Th1 cytokine release): reduce
effect on LPS-induced NFkB-driven luciferase activity (in words) (NFkB [2]): attenuating
PMN numbers [3, 4]: 44 % maximum response

SMILES: CCC[C@@H](O)c1nc2ccccc2nc1/C=C/[C@@H](O)[C@@H](O)CCCC(=O)OC [(1R)-CT4-68, Methyl (5S,6R,E)-5,6-dihydroxy-8-(3-((R)-1-hydroxybutyl)quinoxalin-2-yl)oct-7-enoate]
reduction of LPS-induced NFkB luciferase activity (NFkB [2]; 1 uM): 28.9±6.6%
effect on LPS-induced NFkB-driven luciferase activity (in words) (NFkB [2]): attenuates

SMILES: CCCCC[C@H](O)c1nc(-c2ccccc2)n(-c2ccccc2)c1/C=C/[C@@H](O)[C@@H](O)CCCC(=O)OC [(1S)-9, Methyl (5S,6R,E)-5,6-dihydroxy-8-(4-((S)-1-hydroxyhexyl)-1,2-diphenyl-1H-imidazol-5-yl)oct-7-enoate]
NFkB-driven luciferase activity in resting conditions (in words) (NFkB [1]): do not elicit
effect on LPS-induced Th1 cytokine release (in words) (Th1 cytokine release): reduce
effect on LPS-induced NFkB-driven luciferase activity (in words) (NFkB [2]): attenuating
PMN numbers [3, 4]: 20 % maximum response

SMILES: CCCCC[C@@H](O)c1ccccc1/C=C/[C@@H](O)[C@@H](O)CCCC(=O)OC [Blx]
effect on LPS-induced LDH activity (cytotoxicity, in words) (THP-1 monocytes): significantly (p<0.001) decreased

SMILES: C[C@@H]1C[C@H]2[C@@H]3CCC4=CC(=O)C=C[C@]4(C)[C@@]3(F)[C@@H](O)C[C@]2(C)[C@@]1(O)C(=O)CO [Dexamethasone]
effect on LPS-induced LDH activity (cytotoxicity, in words) (THP-1 monocytes; human, 24 h): significantly (p<0.001) increased

SMILES: CCCCC[C@@H](O)c1c(/C=C/[C@@H](O)[C@@H](O)CCCC(=O)OC)nc(C)n1C [KG-5-22, (5S,6R,E)-methyl 5,6-dihydroxy-8-(5-((R)-1-hydroxyhexyl)-1,2-dimethyl-1H-imidazol-4-yl)oct-7-enoate]
NFkB-driven luciferase activity in resting conditions (in words) (NFkB [1]): did not induce
NFkB-driven luciferase activity in resting conditions (in words) (NFkB [1]; listed as KG5-22): does not elicit
reduction of LPS-induced NFkB luciferase activity (NFkB [2]; 1 pM): 43.7±8.9%
reduction of LPS-induced NFkB luciferase activity (NFkB [2]; 10 pM): 41.3±9.0%
effect on LPS-induced NFkB-driven luciferase activity (in words) (NFkB [2]): attenuating

SMILES: CCCCC[C@H](O)/C=C/C=C\C=C\C=C\[C@@H](O)[C@@H](O)CCCC(=O)O [LXA4, Lipoxin A4, reference compound]
reduction of LPS-induced NFkB luciferase activity (NFkB [2]; 100 nM): 24±1.1%
concentration at which maximal inhibition of LPS-induced NFkB activity is reached (NFkB [2]): 100 nM
PMN numbers ([3]; 5 ng/g i.p. 30 min before and 1 h after zymosan): 35 % maximum response
